Test results reported in ChEMBL document CHEMBL1201862, “PubChem BioAssay data set” (2004).
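Tested at 5 concentrations; 48 h exposure; 96-well plates; endpoints linearly interpolated, else capped at highest concentration. GI50 marks 50% less growth.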 Calls of active or inactive are those of the source. Cut-off read from the data, not from the text of the source: active = GI50 up to about 1.1 µM and inactive = higher. Peptide text beside a SMILES is read from it. * marks the point of attachment. Boc = CC(C)(C)OC(=O)*; OBn = c1ccc(CO*)cc1

Key:
Assay in all cases: NCI anticancer screen, dose series, 48 h
A549 = test system: A549
CCRF-CEM = test system: CCRF-CEM
EKVX = test system: EKVX
HCT-116 = test system: HCT-116
HT-29 = test system: HT-29
MDA-MB-435 = test system: MDA-MB-435
Malme-3M = test system: Malme-3M
NCI-H226 = test system: NCI-H226
NCI/ADR-RES = test system: NCI/ADR-RES
OVCAR-4 = test system: OVCAR-4
PC-3 = test system: PC-3
RPMI-8226 = test system: RPMI-8226
SF-268 = test system: SF-268
SF-295 = test system: SF-295
SK-MEL-2 = test system: SK-MEL-2
SN12C = test system: SN12C
SR = test system: SR
SW-620 = test system: SW-620
TK-10 = test system: TK-10
BT-549 = test system: BT-549

Row | SMILES | GI50 (A549) | GI50 (CCRF-CEM) | GI50 (EKVX) | GI50 (HCT-116) | GI50 (HT-29) | GI50 (MDA-MB-435) | GI50 (Malme-3M) | GI50 (NCI-H226) | GI50 (NCI/ADR-RES) | GI50 (OVCAR-4) | GI50 (PC-3) | GI50 (RPMI-8226) | GI50 (SF-268) | GI50 (SF-295) | GI50 (SK-MEL-2) | GI50 (SN12C) | GI50 (SR) | GI50 (SW-620) | GI50 (TK-10) | GI50 (BT-549)
1 | O=C1NC2C(=CC(O)C(O)C2O)c2cc3c(cc21)OCO3 (stereo not given) | 0.52 µM (active) | 0.206 µM (active) | 0.412 µM (active) | 0.15 µM (active) | 0.345 µM (active) | 0.0951 µM (active) | 0.488 µM (active) | 0.504 µM (active) | 0.621 µM (active) | 0.338 µM (active) | 0.141 µM (active) | 0.414 µM (active) | 0.171 µM (active) | 0.582 µM (active) | 0.351 µM (active) | 0.301 µM (active) | 0.109 µM (active) | 0.335 µM (active) | 0.418 µM (active) | 
2 | CCN(CC)CCCNc1[nH]c2ccccc2c2nc3ccc(OC)cc3c1-2 | 1.43 µM (inactive) | 0.61 µM (active) | 1.71 µM (inactive) | 0.618 µM (active) | 0.521 µM (active) | 1.6 µM (inactive) | 1.76 µM (inactive) | 3.4 µM (inactive) | 1.27 µM (inactive) | 1.21 µM (inactive) | 1.22 µM (inactive) | 0.43 µM (active) | 1.77 µM (inactive) | 1.17 µM (inactive) | 1.73 µM (inactive) | 2.1 µM (inactive) | 0.274 µM (active) | 0.828 µM (active) | 2.31 µM (inactive) | 
3 | COC(=O)C(/C(=N/N)C(=O)Nc1cc(Cl)ccc1Cl)c1nc2ccc([N+](=O)[O-])cc2nc1O (stereo not given) | > 100 µM (inactive) | 25 µM (inactive) | 72.8 µM (inactive) | > 100 µM (inactive) | > 100 µM (inactive) |  | > 100 µM (inactive) | > 100 µM (inactive) |  | > 100 µM (inactive) |  | > 100 µM (inactive) | 92.3 µM (inactive) | > 100 µM (inactive) | > 100 µM (inactive) | > 100 µM (inactive) | > 100 µM (inactive) | > 100 µM (inactive) | > 100 µM (inactive) | 
4 | COc1cc(C=C2C(C)=NN(c3cccc(Cl)c3)C23C(Cl)C(=O)N3c2nc3ccccc3s2)ccc1O (stereo not given) |  | 2.07 µM (inactive) | 31.4 µM (inactive) | 19.9 µM (inactive) | 4.53 µM (inactive) | 12.4 µM (inactive) |  | 22.4 µM (inactive) | 38.8 µM (inactive) | 28.5 µM (inactive) | 14.9 µM (inactive) | 7.26 µM (inactive) | 3.09 µM (inactive) | 37.1 µM (inactive) | 17.5 µM (inactive) |  | 0.111 µM (active) | 10.7 µM (inactive) | 30.7 µM (inactive) | 
5 | COc1cc(NCc2ccc3oc(=O)c(-c4ccccc4)nc3c2)cc(OC)c1OC | > 10 µM (inactive) | > 10 µM (inactive) | > 10 µM (inactive) | > 10 µM (inactive) | > 10 µM (inactive) | > 10 µM (inactive) |  | > 10 µM (inactive) | > 10 µM (inactive) | > 10 µM (inactive) | > 10 µM (inactive) | > 10 µM (inactive) | > 10 µM (inactive) | > 10 µM (inactive) | > 10 µM (inactive) | > 10 µM (inactive) | > 10 µM (inactive) | > 10 µM (inactive) | > 10 µM (inactive) | 
6 | Cc1ccc(/C=N/Nc2nc3ccccc3s2)s1 | > 100 µM (inactive) | > 100 µM (inactive) | 50.7 µM (inactive) | > 100 µM (inactive) | 40.8 µM (inactive) | > 100 µM (inactive) | > 100 µM (inactive) | > 100 µM (inactive) | > 100 µM (inactive) | 34.4 µM (inactive) | 27.9 µM (inactive) | > 100 µM (inactive) | 49.8 µM (inactive) | 40.9 µM (inactive) | > 100 µM (inactive) | 12.6 µM (inactive) |  | > 100 µM (inactive) | 69.2 µM (inactive) | 
7 | Cc1cc2[n-][n+]3ncc(-c4ccccc4)n3c2cc1[N+](=O)[O-] | > 100 µM (inactive) | > 100 µM (inactive) | > 100 µM (inactive) | > 100 µM (inactive) |  | > 100 µM (inactive) |  |  |  | > 100 µM (inactive) | > 100 µM (inactive) | > 100 µM (inactive) |  | > 100 µM (inactive) | > 100 µM (inactive) | > 10 µM (inactive) | > 100 µM (inactive) | > 100 µM (inactive) | > 100 µM (inactive) | > 100 µM (inactive)
8 | COCCCNC(=O)C1=C(C)NC(C)=C(C(=O)NCCCOC)C1 | > 100 µM (inactive) | > 100 µM (inactive) | 18.6 µM (inactive) | > 100 µM (inactive) | > 100 µM (inactive) | > 100 µM (inactive) | 18.1 µM (inactive) | > 100 µM (inactive) | > 100 µM (inactive) | > 100 µM (inactive) | > 100 µM (inactive) | > 100 µM (inactive) | > 100 µM (inactive) | > 100 µM (inactive) | > 100 µM (inactive) | > 100 µM (inactive) | > 100 µM (inactive) | > 100 µM (inactive) | > 100 µM (inactive) | 
9 | Cc1nc2ccccc2c(-n2cccn2)c1CCn1cccn1 | > 100 µM (inactive) | 66.1 µM (inactive) | > 100 µM (inactive) | > 100 µM (inactive) | > 100 µM (inactive) | > 100 µM (inactive) | > 100 µM (inactive) | > 100 µM (inactive) | > 100 µM (inactive) | 23.8 µM (inactive) | > 100 µM (inactive) | > 100 µM (inactive) | > 100 µM (inactive) | > 100 µM (inactive) | > 100 µM (inactive) | > 100 µM (inactive) | 71.4 µM (inactive) | > 100 µM (inactive) | > 100 µM (inactive) | 
10 | COc1cccc(C2c3cc4c(cc3OC(NNS(=O)(=O)c3ccc(C)cc3)C2C)OCO4)c1OC (stereo not given) | 2.62 µM (inactive) | 2.03 µM (inactive) | 3.18 µM (inactive) | 1.78 µM (inactive) | 3.18 µM (inactive) | 3.57 µM (inactive) | 3.61 µM (inactive) | 2.56 µM (inactive) |  |  | 2.97 µM (inactive) | 2.28 µM (inactive) | 4.3 µM (inactive) | 2.9 µM (inactive) | 2.31 µM (inactive) | 3.2 µM (inactive) | 1.36 µM (inactive) | 3.08 µM (inactive) | 4.46 µM (inactive) | 2.2 µM (inactive)
11 | Cc1ccc2c(c1)CC1(Cc3c(C)cccc3C1=O)C2=O (stereo not given) | > 100 µM (inactive) | > 100 µM (inactive) | > 100 µM (inactive) | > 100 µM (inactive) | > 100 µM (inactive) | > 100 µM (inactive) | > 100 µM (inactive) | > 100 µM (inactive) | > 100 µM (inactive) | > 100 µM (inactive) | > 100 µM (inactive) | > 100 µM (inactive) | > 100 µM (inactive) | 69.8 µM (inactive) |  | > 100 µM (inactive) | > 100 µM (inactive) | > 100 µM (inactive) | > 100 µM (inactive) | 
12 | CC(=O)C(=[N+]=[N-])C(=O)OCCOC(=O)C(=[N+]=[N-])C(C)=O | > 1 µM (active) | > 1 µM (active) | > 1 µM (active) | > 1 µM (active) | > 1 µM (active) | > 1 µM (active) | > 1 µM (active) | > 1 µM (active) |  |  | > 1 µM (active) | > 1 µM (active) | > 1 µM (active) | > 1 µM (active) | > 1 µM (active) | > 1 µM (active) | > 1 µM (active) |  | > 1 µM (active) | > 1 µM (active)
13 | [N-]=[N+]=C1N=CN=C1c1nc[nH]n1 | > 100 µM (inactive) | 3.98 µM (inactive) | 40 µM (inactive) | 25 µM (inactive) | > 100 µM (inactive) | 31.3 µM (inactive) | 10.9 µM (inactive) | > 100 µM (inactive) | 22.1 µM (inactive) | 31.8 µM (inactive) | > 100 µM (inactive) | 10.8 µM (inactive) |  | 82.4 µM (inactive) | 94.8 µM (inactive) | 20.9 µM (inactive) |  | 22.1 µM (inactive) | 51.2 µM (inactive) | 
14 | COc1cc(O)c2c(c1)C(=O)C1=C(C2=O)C(O)C[C@@](C)(O)C1 (stereo not given in full) | 2.34 µM (inactive) | 2.39 µM (inactive) | 3.38 µM (inactive) | 0.445 µM (active) | 0.475 µM (active) |  | 0.557 µM (active) | 5.82 µM (inactive) |  | 1.51 µM (inactive) |  | 1.86 µM (inactive) | 2.01 µM (inactive) | 2.58 µM (inactive) | 1.63 µM (inactive) | 1.29 µM (inactive) | 2.4 µM (inactive) | 0.441 µM (active) | 1.98 µM (inactive) | 
15 | OC1CN=C2c3ccccc3C(O)(c3ccc(Cl)cc3)N2C1 (stereo not given) | > 100 µM (inactive) | 36.7 µM (inactive) | > 100 µM (inactive) | 35.6 µM (inactive) | 32.9 µM (inactive) | 65.8 µM (inactive) | 31.7 µM (inactive) | 83.4 µM (inactive) | > 100 µM (inactive) | > 100 µM (inactive) | 41.9 µM (inactive) | 50.7 µM (inactive) | 32 µM (inactive) |  | > 100 µM (inactive) | 57.7 µM (inactive) | 38.1 µM (inactive) | > 100 µM (inactive) | 20.2 µM (inactive) | 
16 | CC(NC(=O)C(NC(=O)OC(C)(C)C)C(C)C)C(=O)N1CCCC1C(=O)NCC(=O)NC(C(=O)NCC(=O)OCc1ccccc1)C(C)C (stereo not given) (Boc-VAPGVG-OBn; configuration not given here) |  | > 100 µM (inactive) | > 100 µM (inactive) | > 100 µM (inactive) | > 100 µM (inactive) | > 100 µM (inactive) | > 100 µM (inactive) |  | > 100 µM (inactive) | > 100 µM (inactive) | > 100 µM (inactive) | > 100 µM (inactive) | > 100 µM (inactive) | > 100 µM (inactive) | > 100 µM (inactive) | > 100 µM (inactive) | > 100 µM (inactive) | > 100 µM (inactive) | > 100 µM (inactive) | 
